Read-outs that look alike come from different tables or passages of the source.
Legend:
[1] = biological target: T1, KOP receptors (Homo sapiens, UniProt P41145); conditions: compared to 1 ref 48; cited from earlier work
[2] = biological target: T1, KOP receptors; conditions: compared to 2 (U50,488) ref 32; cited from earlier work
[3] = biological target: T1, KOP receptors; assay: biochemical; format: biochemical
[4] = biological target: T1, KOP receptors; assay: biochemical; format: binding
[5] = biological target: human MOP receptor (Homo sapiens, UniProt P35372); assay: biochemical; format: binding
human MOP receptor, sequence (P35372 whole entry): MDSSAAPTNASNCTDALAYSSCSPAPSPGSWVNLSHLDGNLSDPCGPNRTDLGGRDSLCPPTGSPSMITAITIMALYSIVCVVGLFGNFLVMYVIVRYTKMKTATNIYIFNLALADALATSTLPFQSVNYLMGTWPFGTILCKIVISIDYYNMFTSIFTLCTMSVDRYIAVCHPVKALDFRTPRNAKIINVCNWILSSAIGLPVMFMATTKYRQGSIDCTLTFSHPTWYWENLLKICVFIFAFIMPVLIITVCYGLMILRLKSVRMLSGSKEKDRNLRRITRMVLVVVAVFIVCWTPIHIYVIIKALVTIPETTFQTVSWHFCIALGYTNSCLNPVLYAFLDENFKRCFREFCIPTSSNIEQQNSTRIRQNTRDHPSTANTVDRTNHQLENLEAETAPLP

[6] = biological target: human DOP receptor (Homo sapiens, UniProt P41143); assay: biochemical; format: binding
human DOP receptor, sequence (P41143 whole entry): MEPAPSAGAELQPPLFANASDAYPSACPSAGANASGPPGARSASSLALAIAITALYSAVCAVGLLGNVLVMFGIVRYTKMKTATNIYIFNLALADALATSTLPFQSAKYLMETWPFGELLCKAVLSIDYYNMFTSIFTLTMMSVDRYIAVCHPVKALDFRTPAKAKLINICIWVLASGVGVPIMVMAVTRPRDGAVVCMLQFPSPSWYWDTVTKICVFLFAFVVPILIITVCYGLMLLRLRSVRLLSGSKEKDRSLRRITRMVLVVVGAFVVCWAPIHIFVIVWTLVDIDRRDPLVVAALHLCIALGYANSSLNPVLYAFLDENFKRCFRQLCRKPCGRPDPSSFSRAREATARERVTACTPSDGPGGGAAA

[7] = biological target: T1, KOP receptors; conditions: read-out: KOP Ki, previous report; cited from earlier work
[8] = biological target: T1, KOP receptors; format: cell-based

T1 sequence (P41145 whole entry): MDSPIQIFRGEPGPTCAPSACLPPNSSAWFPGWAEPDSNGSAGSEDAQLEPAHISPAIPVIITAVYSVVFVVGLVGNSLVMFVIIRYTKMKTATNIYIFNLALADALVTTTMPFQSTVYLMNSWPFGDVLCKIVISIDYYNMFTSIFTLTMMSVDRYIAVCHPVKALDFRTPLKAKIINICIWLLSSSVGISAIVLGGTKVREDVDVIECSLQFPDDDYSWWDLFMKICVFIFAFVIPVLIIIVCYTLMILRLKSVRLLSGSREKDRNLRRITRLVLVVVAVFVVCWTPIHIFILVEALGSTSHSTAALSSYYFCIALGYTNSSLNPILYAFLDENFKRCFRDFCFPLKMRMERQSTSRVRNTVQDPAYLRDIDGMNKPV

COC(=O)[C@@H]1C[C@H](OC(C)=O)C(=O)[C@H]2[C@@]1(C)CC[C@H]1C(=O)O[C@@H](c3ccoc3)C[C@]21C [Compound 3, (2R,4aR,6aR,7R,9S,10aS,10bR)-methyl 9-acetoxy-2-(furan-3-yl)-6a,10b-dimethyl-4,10-dioxododecahydro-1H-benzo[f]isochromene-7-carboxylate]
Emax, β-arrestin 2 DiscoveRx assay [1]: 126 ± 10
Emax, [35S]GTP-γ-S assay, previous report [2]: 73 ± 6
less potent than 1 in the [35S]GTP-γ-S assay [3]: 18 fold

COC(=O)[C@@H]1C[C@H](OC(C)=O)C(=O)[C@H]2[C@@]1(C)CC[C@H]1C(=O)OC(/C=C\c3ccoc3)C[C@]21C (stereo partly drawn) [Compound 9, (4aR,6aR,7R,9S,10aS,10bR)-methyl 9-acetoxy-2-((Z)-2-(furan-3-yl)vinyl)-6a,10b-dimethyl-4,10-dioxododecahydro-1H-benzo[f]isochromene-7-carboxylate]
Ki [4]: 30 ± 4 nM
higher affinity for the KOP receptor compared to trans analogue 8 [4]: ~40 fold
Ki [5]: 2600 nM
Ki [6]: > 10000 nM
remaining activity at 10 µM ([6]; read-out: DOP percent of control produced by the 10 μM test drug): 94%
EC50 [3]: 1370 nM
Emax ([3]; read-out: KOP Emax ± SD, stimulation of [35S]GTP-γ-S binding): 105 ± 4%

COC(=O)[C@@H]1C[C@H](OC(C)=O)C(=O)[C@H]2[C@@]1(C)CC[C@H]1C(=O)O[C@H](C(=O)c3ccccc3)C[C@]21C [Compound 12, (2S,4aR,6aR,7R,9S,10aS,10bR)-methyl 9-acetoxy-2-benzoyl-6a,10b-dimethyl-4,10-dioxododecahydro-1H-benzo[f]isochromene-7-carboxylate]
EC50 [3]: 1370 ± 180 nM

COC(=O)[C@@H]1C[C@H](OC(C)=O)C(=O)[C@H]2[C@@]1(C)CC[C@H]1C(=O)O[C@H](C(=O)c3cccc(C(N)=O)c3)C[C@]21C [Compound 19, (2S,4aR,6aR,7R,9S,10aS,10bR)-methyl 9-acetoxy-2-(3-carbamoylbenzoyl)-6a,10b-dimethyl-4,10-dioxododecahydro-1H-benzo[f]isochromene-7-carboxylate]
increased KOP affinity compared to 17 [4]: approximately 3 fold
less potent than 1 in the [35S]GTP-γ-S assay [3]: 18 fold

COC(=O)[C@@H]1C[C@H](OC(C)=O)C(=O)[C@H]2[C@@]1(C)CC[C@H]1C(=O)O[C@H](C(=O)c3cccc(C#N)c3)C[C@]21C [Compound 20, (2S,4aR,6aR,7R,9S,10aS,10bR)-methyl 9-acetoxy-2-(3-cyanobenzoyl)-6a,10b-dimethyl-4,10-dioxododecahydro-1H-benzo[f]isochromene-7-carboxylate]
decreased KOP affinity compared to 19 [4]: 6 fold

COC(=O)[C@@H]1C[C@H](OC(C)=O)C(=O)[C@H]2[C@@]1(C)CC[C@H]1C(=O)O[C@H](C(=O)c3ccco3)C[C@]21C [Compound 23, (2S,4aR,6aR,7R,9S,10aS,10bR)-methyl 9-acetoxy-2-(furan-2-carbonyl)-6a,10b-dimethyl-4,10-dioxododecahydro-1H-benzo[f]isochromene-7-carboxylate]
Ki [7]: > 1000 nM

COC(=O)[C@@H]1C[C@H](OC(C)=O)C(=O)[C@H]2[C@@]1(C)CC[C@H]1C(=O)O[C@H](C(=O)c3ccsc3)C[C@]21C [Compound 26, (2S,4aR,6aR,7R,9S,10aS,10bR)-methyl 9-acetoxy-6a,10b-dimethyl-4,10-dioxo-2-(thiophene-3-carbonyl)dodecahydro-1H-benzo[f]isochromene-7-carboxylate]
more potent than 25 as an agonist in the [35S]GTP-γ-S assay [3]: approximately 3 fold

C/C=C\C(=O)[C@@H]1C[C@]2(C)[C@H]3C(=O)[C@@H](OC(C)=O)C[C@@H](C(=O)OC)[C@]3(C)CC[C@H]2C(=O)O1 [Compound 30, (2S,4aR,6aR,7R,9S,10aS,10bR)-methyl 9-acetoxy-2-((Z)-but-2-enoyl)-6a,10b-dimethyl-4,10-dioxododecahydro-1H-benzo[f]isochromene-7-carboxylate]
decrease in KOP affinity compared to 12 [4]: 4 fold

COC(=O)[C@@H]1C[C@H](OC(C)=O)C(=O)[C@H]2[C@@]1(C)CC[C@H]1C(=O)O[C@H](c3ccco3)C[C@]21C [Compound 31, (2S,4aR,6aR,7R,9S,10aS,10bR)-methyl 9-acetoxy-2-(furan-2-yl)-6a,10b-dimethyl-4,10-di-oxododecahydro-1H-benzo[f]isochromene-7-carboxylate]
decrease in potency compared to 1, Ca2+ mobilization [8]: 2 fold
Ki [4]: 8.7 ± 0.4 nM
increase in affinity at KOP receptors compared to 23 [4]: 9 fold
less potent than 1 in the [35S]GTP-γ-S assay [3]: 3 fold
